Measured values published in ChEMBL document CHEMBL4382235, “Design, synthesis and biological evaluation of novel 1-phenyl phenanthridin-6(5H)-one derivatives as anti-tumor agents targeting TOPK” (Eur J Med Chem, 2019).

How the values were obtained:
[1] = test system: A549; experiment: cells; details: Homo sapiens, A549, 72 h
Description: Antiproliferative activity against human A549 cells after 72 hrs by MTT assay

[2] = test system: HCT-15; experiment: cells; details: Homo sapiens, HCT-15, 72 h
Description: Antiproliferative activity against human HCT15 cells after 72 hrs by MTT assay

[3] = test system: HCT-116; experiment: cells; details: Homo sapiens, HCT-116, 72 h
Description: Antiproliferative activity against human HCT116 cells after 72 hrs by MTT assay

[4] = test system: HCT-116; experiment: animal or person; details: Mus musculus, HCT-116, po, read-out: TGI
[5] = test system: HCT-15; experiment: animal or person; details: Mus musculus, HCT-15, po, read-out: TGI
[6] = Half life in Sprague-Dawley rat at 2 mg/kg, iv by LC-MS/MS analysis; type: ADME, organism-based; details: in vivo
[7] = Tmax in Sprague-Dawley rat at 2 mg/kg, iv by LC-MS/MS analysis; type: ADME, organism-based; details: in vivo
[8] = Toxicity in nude mouse xenografted with human HCT116 cells assessed as body weight loss at 10 to 15 mg/kg, qd administered via gavage for 3 weeks; type: organism-based; details: in vivo, po, 504 h
[9] = Volume of distribution at steady state in Sprague-Dawley rat at 2 mg/kg, iv by LC-MS/MS analysis; type: ADME, organism-based; details: in vivo
[10] = Toxicity in nude mouse xenografted with human HCT15 cells assessed as body weight loss at 10 to 15 mg/kg, qd administered via gavage for 3 weeks; type: organism-based; details: in vivo, po, 504 h
[11] = MRT (0 to t) in Sprague-Dawley rat at 15 mg/kg, po by LC-MS/MS analysis; type: ADME, organism-based; details: in vivo
[12] = test system: HCT-15; experiment: animal or person; details: Mus musculus, HCT-15, po, read-out: TGI; remark: listed apart in the source
[13] = AUC (0 to 24 hrs) in Sprague-Dawley rat at 15 mg/kg, po by LC-MS/MS analysis; type: ADME, organism-based; set-up: dose 15 mg/kg, time < 24 hr, route oral; details: in vivo
[14] = Clearance in Sprague-Dawley rat at 2 mg/kg, iv by LC-MS/MS analysis; type: ADME, organism-based; details: in vivo
[15] = Oral bioavailability in Sprague-Dawley rat at 15 mg/kg by LC-MS/MS analysis; type: ADME, organism-based; details: in vivo
[16] = Cmax in Sprague-Dawley rat at 15 mg/kg, po by LC-MS/MS analysis; type: ADME, organism-based; set-up: dose 15 mg/kg, route oral; details: in vivo
[17] = test system: HCT-116; experiment: animal or person; details: Mus musculus, HCT-116, po, read-out: TGI; remark: listed apart in the source
[18] = Toxicity in nude mouse xenografted with human SW620 cells assessed as body weight loss at 10 to 15 mg/kg, qd administered via gavage for 3 weeks; type: organism-based; details: in vivo, po, 504 h
[19] = MRT (0 to t) in Sprague-Dawley rat at 2 mg/kg, iv by LC-MS/MS analysis; type: ADME, organism-based; details: in vivo
[20] = test system: SW-620; experiment: animal or person; details: Mus musculus, SW-620, po, read-out: TGI
[21] = Cmax in Sprague-Dawley rat at 2 mg/kg, iv by LC-MS/MS analysis; type: ADME, organism-based; set-up: dose 2 mg/kg, route intravenous; details: in vivo
[22] = AUC (0 to t) in Sprague-Dawley rat at 2 mg/kg, iv by LC-MS/MS analysis; type: ADME, organism-based; details: in vivo
[23] = Tmax in Sprague-Dawley rat at 15 mg/kg, po by LC-MS/MS analysis; type: ADME, organism-based; details: in vivo
[24] = test system: SW-620; experiment: animal or person; details: Mus musculus, SW-620, po, read-out: TGI; remark: listed apart in the source

For `Cc1cc(O)c(-c2ccc([C@@H](C)N)cc2)c2c1[nH]c(=O)c1sccc12`, the IC50 [1] was 360 nM, the IC50 [2] was 257 nM and the IC50 [3] was 468 nM.
Molecule `Cc1cc(O)c(-c2ccc([C@@H](C)CN(C)C)cc2)c2c1[nH]c(=O)c1sccc12` has an IC50 [1] of 20.4 nM, an inhibition in vivo at 15 mg/kg [4] of 49.4% and an IC50 [2] of 73.1 nM. The IC50 [3] was 45 nM.
With `Cc1cc(O)c(-c2ccc([C@@H](C)CN)cc2)c2c1[nH]c(=O)c1c(O)cccc12` the IC50 [1] was 5.41 nM, the inhibition in vivo at 15 mg/kg [5] was 78.8% and the inhibition in vivo at 15 mg/kg [4] was 75.8%. The half-life [6] was 7.02 h, the Tmax [7] was 4.8 min and the Activity [8] was “Non-Toxic”. The Vdss [9] was 20.25 L/kg, the Activity [10] was “Non-Toxic” and the MRT last [11] was 10.5 h. For the same molecule, the inhibition in vivo at 10 mg/kg [12] was 42.1%, the AUC(0-t) at 24 h [13] was 4230 ng·h/mL and the CL [14] was 33.9532 mL/min/kg. For the same molecule, the bioavailability [15] was 100%, the Cmax [16] was 251 ng/mL and the inhibition in vivo at 10 mg/kg [17] was 53.7%. The IC50 [2] was 31.4 nM, the IC50 [3] was 7.87 nM and the Activity [18] was “Non-Toxic”. For the same molecule, the “MRT(t)” value [19] was 3.24 h, the inhibition in vivo at 10 mg/kg [20] was 72.1% and the Cmax [21] was 188 ng/mL. It also gave an AUC(0-t) [22] of 564 ng·h/mL, a Tmax [23] of 6.67 h and an inhibition in vivo at 15 mg/kg [24] of 79.7%.
With `C[C@H](c1ccc(-c2c(O)cc(Cl)c3[nH]c(=O)c4ccccc4c23)cc1)N(C)C` the IC50 [1] was > 1000 nM, the IC50 [2] was > 1000 nM and the IC50 [3] was > 1000 nM.
In the case of `NCC1(c2ccc(-c3c(O)cc(Cl)c4[nH]c(=O)c5c(O)cccc5c34)cc2)CC1`, the IC50 [1] is reported as 437 nM and the IC50 [3] is reported as 564 nM.
In the case of `COc1cc(C)c2[nH]c(=O)c3ccccc3c2c1-c1ccc(C2(CN)CC2)cc1`, the IC50 [1] is reported as 894 nM and the IC50 [3] is reported as > 1000 nM.
With `C[C@@H](N)c1ccc(-c2c(O)cc(Cl)c3[nH]c(=O)c4ccccc4c23)cc1` the IC50 [1] was 600 nM, the IC50 [2] was 801 nM and the IC50 [3] was > 1000 nM.
For `Cc1cc(O)c(-c2ccc([C@@H](C)N(C)C)cc2)c2c1[nH]c(=O)c1c(C)cccc12`, the IC50 [1] was 470 nM, the IC50 [2] was 397 nM and the IC50 [3] was 469 nM.
`Cc1cc(O)c(-c2ccc([C@@H](C)CN(C)C)cc2)c2c1[nH]c(=O)c1ccccc12` gave an IC50 [1] of 264 nM, an IC50 [2] of 600 nM and an IC50 [3] of 299 nM.
In the case of `Cc1cc(O)c(-c2ccc([C@@H](C)CN)cc2)c2c1[nH]c(=O)c1ccccc12`, the IC50 [1] is reported as 78.7 nM, the IC50 [2] is reported as 365 nM and the IC50 [3] is reported as 114 nM.
`Cc1cc(O)c(-c2ccc([C@@H](C)N(C)C)cc2)c2c1[nH]c(=O)c1ccccc12` gave an IC50 [1] of 250 nM and an IC50 [3] of 314 nM.
Work on `Cc1ccc2c(=O)[nH]c3c(C)cc(O)c(-c4ccc([C@@H](C)CN)cc4)c3c2c1` yielded an IC50 [1] of 60.3 nM, an IC50 [2] of 327 nM and an IC50 [3] of 156 nM.
`Cc1ccc2c(=O)[nH]c3c(C)cc(O)c(-c4ccc([C@@H](C)N)cc4)c3c2c1` showed an IC50 [1] of 120 nM, an IC50 [2] of 217 nM and an IC50 [3] of 385 nM.
`Cc1ccc2c(=O)[nH]c3c(C)cc(O)c(-c4ccc([C@@H](C)N(C)C)cc4)c3c2c1` gave an IC50 [1] of 317 nM, an IC50 [2] of 467 nM and an IC50 [3] of 274 nM.
With `Cc1cc(O)c(-c2ccc(C3(CN(C)C)CC3)cc2)c2c1[nH]c(=O)c1ccccc12` the IC50 [1] was > 1000 nM and the IC50 [3] was 950 nM.
With `Cc1cc(O)c(-c2ccc(C3(CN)CC3)cc2)c2c1[nH]c(=O)c1ccccc12` the IC50 [1] was 211 nM, the IC50 [2] was 398 nM and the IC50 [3] was 231 nM.
Molecule `Cc1cc(O)c(-c2ccc([C@@H](C)CN(C)C)cc2)c2c1[nH]c(=O)c1c(C)cccc12` has an IC50 [1] of 287 nM, an IC50 [2] of 337 nM and an IC50 [3] of 419 nM.
In the case of `Cc1cc(O)c(-c2ccc([C@@H](C)CN)cc2)c2c1[nH]c(=O)c1c(C)cccc12`, the IC50 [1] is reported as 25.9 nM, the IC50 [2] is reported as 301 nM and the IC50 [3] is reported as 75.8 nM.
For `Cc1ccc2c(c1)c(=O)[nH]c1c(C)cc(O)c(-c3ccc([C@@H](C)N)cc3)c12`, the IC50 [1] was > 1000 nM and the IC50 [3] was 571 nM.
In the case of `Cc1cc(O)c(-c2ccc(C3(CN(C)C)CC3)cc2)c2c1[nH]c(=O)c1c(N(C)C)cccc12`, the IC50 [1] is reported as > 1000 nM and the IC50 [3] is reported as > 1000 nM.
`Cc1ccc2c(=O)[nH]c3c(C)cc(O)c(-c4ccc([C@@H](C)CN(C)C)cc4)c3c2c1` showed an IC50 [1] of 466 nM, an IC50 [2] of 501 nM and an IC50 [3] of 385 nM.
